Where “and” joins values, the source holds several entries; their conditions need not be identical. Equal entries are not always repeated. Where two headings read alike, the source gives them in different places.
Experiments:
W1145L-CFTR = molecular target: T1, W1145L-CFTR (Homo sapiens, UniProt P13569, W1145L); experiment: Inside-out patch-clamp inhibition of CFTR current by Inh-172; format: cell-based
T1 construct: expressed in transfected cells; host or cells: CHO cells, pcDNA plasmid
Protocol: (§1) CHO cells were grown at 37 °C in Dulbecco’s modified Eagle’s medium supplemented with 10% (vol/vol) fetal bovine serum (Sigma-Aldrich, St. Louis, MO). pcDNA plasmids carrying the desired CFTR construct were transfected to CHO cells using PolyFect transfection reagent (Qiagen, Hilden, Germany) together with green fluorescence protein (GFP) cDNA (pEGFP-C3, Takara Bio, Shiga, Japan) that helps identify expression of CFTR. Cells were first incubated with the transfection reagents at 37 °C for 6-12 hours on sterile glass chips in 35-mm tissue culture dishes before transferred to 27 °C for incubation for 2–7 days. Primers for mutations were ordered from Integrated DNA Technologies (Coralville, IA) and were summarized in Supplementary Data. All CFTR mutants were prepared with QuikChange XL kit (Agilent, Santa Clara, CA) and sequenced at the DNA Core facility at University of Missouri-Columbia.
(§2) Patch-clamp pipettes were made from borosilicate capillary glass using a two-stage vertical puller (PP-81; Narishige, Amityville, NY). The pipette tips were fire polished with a homemade microforge to yield a pipette resistance of 2–5 MΩ when filled with a pipette solution containing (in mM): 140 NMDG-Cl (N-methyl-D-glucamine-chloride), 5 CaCl2, 2 MgCl2, and 10 HEPES, pH 7.4. For recordings, transfected cells on glass chips were transferred into a continuously perfused chamber on the stage of an inverted microscope (IX51; Olympus, Tokyo, Japan) with the perfusing solution containing (in mM): 150 NMDG-Cl, 2 MgCl2, 10 EGTA, 8 Tris, and 10 HEPES, pH 7.4. The membrane patch was excised to an inside-out configuration with a seal resistance >40 GΩ. CFTR currents were recorded with an amplifier (EPC9; HEKA, Holliston, MA), filtered through an eight-pole Bessel filter (LPF-8; Warner Instruments, Hamden, CT) at 100 Hz and digitized to a computer at a sampling rate of 500 Hz with Pulse software (version 8.53; HEKA). The membrane potential was held at −30 mV. Solution exchange was achieved by a fast solution change system (SF-77B; Warner Instruments). Inh-172 was obtained from the CFTR Chemical Compound Program supported by the Cystic Fibrosis Foundation. All experiments were performed at room temperature.
(§3) The steady state mean currents were measured in the Igor Pro software (version 8.0; WaveMetrics). The mean baseline currents were subtracted from the steady state mean currents before the data were used to determine the degrees of inhibition. The degrees of inhibition by CFTR inhibitor 172 were calculated based on the equation:1 %inhibition=1−IInh−172/I0X100% where I0 and Iinh−172 represent uninhibited and inhibited currents, respectively. The IC50 and Hill coefficients were obtained by fitting percent inhibition as a function of [Inh-172] with the Hill equation:2 %inhibition=base+(max−base)/1+xhalf/x^rate where max and base represent the […] percent inhibition by Inh-172, x represents the concentration of Inh-172, and the rate is the Hill coefficient. The estimated IC50 (xhalf) and Hill coefficients are listed in Table 1 as mean ± standard deviation. Each patch-clamp recording was made from a separate cell.

W1145Y-CFTR = molecular target: T2, W1145Y-CFTR (Homo sapiens, UniProt P13569, W1145Y); experiment: as above; format: cell-based; conditions: for inhibition at 0.5 µM: 500 nM Inh-172; for inhibition at 5 µM: 5000 nM Inh-172; for inhibition at 10 µM: 10000 nM Inh-172
T2 construct: expressed in transfected cells; host or cells: CHO cells, pcDNA plasmid
T2 sequence (P13569 whole entry W1145Y): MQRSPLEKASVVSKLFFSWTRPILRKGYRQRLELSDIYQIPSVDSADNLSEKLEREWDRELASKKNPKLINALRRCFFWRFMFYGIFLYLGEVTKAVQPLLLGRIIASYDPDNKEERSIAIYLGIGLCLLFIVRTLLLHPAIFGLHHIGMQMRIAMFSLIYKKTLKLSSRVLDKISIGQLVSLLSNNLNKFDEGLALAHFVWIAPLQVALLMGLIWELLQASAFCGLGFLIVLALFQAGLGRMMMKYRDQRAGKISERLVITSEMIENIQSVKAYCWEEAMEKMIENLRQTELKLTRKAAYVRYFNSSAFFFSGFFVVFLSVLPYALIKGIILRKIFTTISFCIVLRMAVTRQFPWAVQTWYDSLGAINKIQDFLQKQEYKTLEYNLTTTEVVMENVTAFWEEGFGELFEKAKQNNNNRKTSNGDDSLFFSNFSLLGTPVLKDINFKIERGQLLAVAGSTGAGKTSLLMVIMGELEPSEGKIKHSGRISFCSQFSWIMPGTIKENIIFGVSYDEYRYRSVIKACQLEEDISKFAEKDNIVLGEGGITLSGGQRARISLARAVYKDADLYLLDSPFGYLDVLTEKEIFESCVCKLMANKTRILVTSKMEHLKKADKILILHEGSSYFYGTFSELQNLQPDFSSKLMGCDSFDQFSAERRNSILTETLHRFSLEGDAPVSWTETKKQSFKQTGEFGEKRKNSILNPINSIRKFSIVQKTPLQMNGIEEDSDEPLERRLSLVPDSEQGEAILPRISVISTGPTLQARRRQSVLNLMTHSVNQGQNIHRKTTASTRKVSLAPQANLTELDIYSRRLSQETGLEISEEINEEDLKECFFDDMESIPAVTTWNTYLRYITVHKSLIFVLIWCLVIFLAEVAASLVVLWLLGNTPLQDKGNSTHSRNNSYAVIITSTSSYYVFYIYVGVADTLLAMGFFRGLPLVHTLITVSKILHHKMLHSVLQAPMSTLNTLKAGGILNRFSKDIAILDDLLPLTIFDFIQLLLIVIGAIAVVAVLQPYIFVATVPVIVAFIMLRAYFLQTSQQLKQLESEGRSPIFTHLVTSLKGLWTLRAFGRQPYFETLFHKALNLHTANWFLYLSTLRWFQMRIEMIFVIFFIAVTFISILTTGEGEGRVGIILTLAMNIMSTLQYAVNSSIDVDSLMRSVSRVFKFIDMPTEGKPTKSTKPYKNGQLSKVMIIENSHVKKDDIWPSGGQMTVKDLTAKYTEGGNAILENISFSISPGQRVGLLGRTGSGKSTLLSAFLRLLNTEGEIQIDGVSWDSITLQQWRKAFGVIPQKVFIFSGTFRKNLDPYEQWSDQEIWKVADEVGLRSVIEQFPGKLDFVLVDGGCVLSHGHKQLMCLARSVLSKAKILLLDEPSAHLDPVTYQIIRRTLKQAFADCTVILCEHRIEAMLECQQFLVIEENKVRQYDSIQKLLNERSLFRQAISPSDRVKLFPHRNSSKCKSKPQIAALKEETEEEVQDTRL
Protocol: as §1, §2, §3

[1] = Visible precipitates in perfusion solution; format: physicochemical
Text: Point 7 (poorly deﬁned dose-response curves): The authors response would seem to explain why points may be missing from the left side of the plot (Fig 4e), but I don't think it explains their absence from the right side. The data points for the three mutants roughly deﬁne a straight line. In order to have a meaningful ﬁt that can be used to extract a reliable IC50, one needs to sample higher and lower concentrations than the authors have done.
While I understand that there may be technical limitations that make this difficult or impossible, I think scientiﬁc rigor still has to be maintained. If the experiment cannot be done properly due to technical limitations, that is ﬁne, but low quality data should not be interpreted and presented. […]
and include in a publication. I also still think that the way the authors are reporting signiﬁcant ﬁgures this is not good practice, though this aspect is more of a stylistic/precision issue.
In Fig. 4e, we added 25 nM and 10 µM data points for WT-CFTR, and the newly added data […]
added 10 µM data point for M348K-CFTR, so that for all tested mutants, the maximum [Inh-172] is 10 µM (All related ﬁgures in the main text are updated). We could not increase [Inh-172] further because precipitates were seen gushing out of our perfusion tubing at concentrations ≥ 20 µM. […]

[2] = 100 nM Inh-172, read-out: percent inhibition of current, Mean
[3] = 1000 nM Inh-172, read-out: percent inhibition of current, Mean
[4] = read-out: percent inhibition of current, Mean
[5] = read-out: percent inhibition of current, individual cell

T1 sequence (P13569 whole entry W1145L): as the sequence (P13569 whole entry W1145Y) above, with Y1145L counted along it

## O=C(O)c1ccc(/C=C2\SC(=S)N(c3cccc(C(F)(F)F)c3)C2=O)cc1 [Inh-172, CFTRinh-172]
W1145L-CFTR; 100 nM Inh-172
  percent inhibition of current, individual cell: 11
W1145L-CFTR; [2]
  inhibition at 0.1 µM: 16%
W1145L-CFTR; 100 nM Inh-172, read-out: percent inhibition of current, individual cell
  inhibition at 0.1 µM: 21%
W1145L-CFTR; 500 nM Inh-172
  percent inhibition of current, individual cell: 42 and 48
W1145L-CFTR; 500 nM Inh-172, read-out: percent inhibition of current, Mean
  inhibition at 0.5 µM: 44.3%
W1145L-CFTR; 500 nM Inh-172, read-out: percent inhibition of current, individual cell
  inhibition at 0.5 µM: 43%
W1145L-CFTR; 1000 nM Inh-172
  percent inhibition of current, individual cell: 59 and 67
W1145L-CFTR; [3]
  inhibition at 1 µM: 62.3%
W1145L-CFTR; 1000 nM Inh-172, read-out: percent inhibition of current, individual cell
  inhibition at 1 µM: 61%
W1145L-CFTR; 5000 nM Inh-172
  percent inhibition of current, individual cell: 83 and 87 and 70
W1145L-CFTR; 5000 nM Inh-172, read-out: percent inhibition of current, Mean
  inhibition at 5 µM: 81.3%
W1145L-CFTR; 5000 nM Inh-172, read-out: percent inhibition of current, individual cell
  inhibition at 5 µM: 85%
W1145L-CFTR; 10000 nM Inh-172
  percent inhibition of current, individual cell: 91 and 83
W1145L-CFTR; 10000 nM Inh-172, read-out: percent inhibition of current, Mean
  inhibition at 10 µM: 89.5%
W1145L-CFTR; 10000 nM Inh-172, read-out: percent inhibition of current, individual cell
  inhibition at 10 µM: 92%
W1145L-CFTR; W1145L
  Hill Coefficient: 0.82 ± 0.07
  IC50: 640 ± 60 nM
W1145Y-CFTR; [2]
  inhibition at 0.1 µM: 10.8%
W1145Y-CFTR; [4]
  inhibition at 0.5 µM: 38%
  inhibition at 5 µM: 82%
  inhibition at 10 µM: 91.4%
W1145Y-CFTR; [5]
  inhibition at 0.5 µM: 29%
  inhibition at 5 µM: 77%
  inhibition at 10 µM: 88%
W1145Y-CFTR; [3]
  inhibition at 1 µM: 54%
W1145Y-CFTR; W1145Y
  Hill Coefficient: 0.92 ± 0.03
  IC50: 870 ± 30 nM
[1]
  concentration at which precipitates were seen: ≥ 20 µM

From paper PMC11303713, “Allosteric inhibition of CFTR gating by CFTRinh-172 binding in the pore” (Nature Communications, 2024)
